# According to paper PMC7419465, “Response and Adherence to Nilotinib in Daily practice (RAND study): an in-depth observational study of chronic myeloid leukemia patients treated with nilotinib” (European Journal of Clinical Pharmacology, 2020):
# Several values for one entry are separate records, joined by “and”; a condition that tells them apart may be missing. Identical values can stand only once. Like-named read-outs stand apart in the source and are kept apart here.
# Key:
# [1] = Nilotinib trough plasma concentration (Cmin) from dried blood spot self-sampling; format: in vivo, CP-CML patients
# Experimental: Blood sampling was performed by the patient at home by means of a validated dried blood spot (DBS) sampling method. Using the DBS, nilotinib plasma concentrations were calculated as previously reported. Patients were instructed to sample blood at predose at baseline (if already on nilotinib treatment), 3, 6, and 12 months from study entry. The time of blood sampling, time of last nilotinib intake, and body weight were recorded in patient diaries. Cmin samples were defined as those taken between 8 and 16 h after the prior dose.
# Individual measures of exposure were obtained using averaged Cmin values for individual patients based on the measurements obtained at baseline, 3, 6, and 12 months. Intra-patient variability in nilotinib Cmin was analyzed in patients who had ≥ 2 analyzed samples available and expressed as the average coefficient of variation (CV%). Missing Cmin values were imputed with the mean of the observed Cmin values for the corresponding dose. Univariable linear regression was used to identify variables (one by one) related to nilotinib Cmin. GEE was used to identify whether the occurrence of side effects was related to observed nilotinib Cmin values (without imputation) obtained at baseline, 3, 6, and 12 months.
# [2] = system: BCR-ABL transcript level; assay: Molecular response (MMR, BCR-ABL transcript level ≤ 0.1% IS) to nilotinib treatment; format: in vivo, CP-CML patients
# Experimental: The response was considered optimal when a MMR was achieved within 12 months of nilotinib treatment. MMR was defined as a BCR-ABL transcript level of ≤ 0.1% on the International Scale. For patients already on treatment at entry, the time until MMR was obtained retrospectively from their medical files.
# Comparison of adherence (continuous) and Cmin values (either grouped into quartiles [Q1 vs. Q2–Q4] or based on a previously reported threshold concentration of 490 μg/L) among response groups (time to MMR after start of nilotinib treatment ≤ 12 months vs. > 12 months, stratified by line of treatment) was performed using Mann-Whitney tests and Fisher’s exact tests. Time to MMR was assessed using the Kaplan Meier method with logrank test. In these outcome analyses, the mean of each measure of adherence and Cmin values was used. For all analyses, a two-tailed significance level of 0.05 was used. p values below this level were considered statistically significant. All statistical analyses were performed using SPSS version 22 for Windows (IBM Corp, Armonk, NY, USA).
# [3] = Patient-reported side effects of nilotinib (questionnaire, 5-point Likert scale); format: in vivo, CP-CML patients
# Text: At study entry, patients completed a self-administered composite questionnaire including demographic characteristics (date of birth, gender, education, living status, and working status), use of St. John’s wort, use of grapefruit (juice), quality of life (Short Form-12 Health Survey [SF-12]), side effects, and beliefs about medication in general (Beliefs about Medicines Questionnaire [BMQ]-General) and specifically about nilotinib (BMQ-Specific). The questionnaire at 3, 6, and 12 months also included the MARS-5 and questions on nilotinib intake in relation to food intake, use of tools to prevent forgetting, illness perception (Brief Illness Perception Questionnaire [Brief IPQ]), and information satisfaction (Satisfaction with Information about Medicines Scale [SIMS])[51, 52]. Education was assessed as the highest level completed, and dichotomized into higher education (higher general secondary education or above) and lower education. Living status was categorized as living alone or not living alone, and work status as having paid work or not. Questions on side effects were based on literature data and concerned specific nilotinib toxicities occurring in > 10% of patients (headache, nausea, rash, itching, myalgia, fatigue). Answers were scored on a 5-point Likert scale (0 = not at all to 4 = very much). Symptoms scored as “3 = a lot” or “4 = very much” were considered “severe.”
# [4] = Nilotinib treatment discontinuation during the 12-month study period; format: in vivo, CP-CML patients; conditions: of 68 patients
# Text: In this multicenter prospective observational study, conducted between August 2013 and April 2017 in six Dutch hospitals, CP-CML patients using nilotinib were followed for 12 months. Initially, it was the aim only to include newly diagnosed CP-CML patients starting nilotinib treatment. […] The study was registered in the Netherlands Trial Register (NTR3992) and the protocol has been published previously.
# Information on disease characteristics, medical history, co-medication, and nilotinib treatment was obtained from the patient’s medical file and pharmacy dispensing record.
# [5] = system: BCR-ABL transcript level; set-up: method as in PMID 26837842; conditions: 5-year update of the ENESTnd trial, first-line; cited from earlier work
# [6] = 42 patients with ≥ 2 analyzed samples
# [7] = second/third-line nilotinib treatment
smiles,measurement,setting,value
Cc1cn(-c2cc(NC(=O)c3ccc(C)c(Nc4nccc(-c5cccnc5)n4)c3)cc(C(F)(F)F)c2)cn1 [nilotinib],"Observed nilotinib Cmin, mean ± SD",[1]; 150 mg BID (n = 15 samples),835 ± 412 ng/mL
same,"Observed nilotinib Cmin, median (IQR)",[1]; 150 mg BID (n = 15 samples),656 (548–1042) μg/L
same,"Observed nilotinib Cmin, range",[1]; 150 mg BID (n = 15 samples),390 to 1793 ng/mL
same,"Observed nilotinib Cmin, mean ± SD",[1]; 300 mg BID (n = 85 samples),1021 ± 472 ng/mL
same,"Observed nilotinib Cmin, median (IQR)",[1]; 300 mg BID (n = 85 samples),954 (654–1274) μg/L
same,"Observed nilotinib Cmin, range",[1]; 300 mg BID (n = 85 samples),196 to 2413 ng/mL
same,"Observed nilotinib Cmin, mean ± SD",[1]; 300 mg QD (n = 6 samples),567 ± 110 ng/mL
same,"Observed nilotinib Cmin, median (IQR)",[1]; 300 mg QD (n = 6 samples),589 (450–658) μg/L
same,"Observed nilotinib Cmin, range",[1]; 300 mg QD (n = 6 samples),418 to 702 ng/mL
same,"Observed nilotinib Cmin, mean ± SD",[1]; 400 mg BID (n = 25 samples),1497 ± 597 ng/mL
same,"Observed nilotinib Cmin, median (IQR)",[1]; 400 mg BID (n = 25 samples),1253 (1054–2053) μg/L
same,"Observed nilotinib Cmin, range",[1]; 400 mg BID (n = 25 samples),342 to 2540 ng/mL
same,"Observed nilotinib Cmin, mean ± SD",[1]; 400 mg QD (n = 6 samples),536 ± 57 ng/mL
same,"Observed nilotinib Cmin, median (IQR)",[1]; 400 mg QD (n = 6 samples),552 (517–570) μg/L
same,"Observed nilotinib Cmin, range",[1]; 400 mg QD (n = 6 samples),422 to 574 ng/mL
same,"intra-patient variability, %CV in Cmin (mean ± SD)",[1]; [6],25 ± 19%
same,"intra-patient variability, %CV in Cmin, median",[1]; [6],20%
same,"intra-patient variability, %CV in Cmin, range",[1]; [6],1–91%
same,patients with nilotinib Cmin generally above the therapeutic target,[1]; in vivo,95%
same,range of Cmin values below the threshold concentration of 490 μg/L,[1]; nine patients,196 to 467 ng/mL
same,patients with a Cmin below the threshold concentration of 490 μg/L at any time,[1]; nine patients of 56,16%
same,Cmin median (IQR),[1]; patients reporting Fatigue: Mild (n = 72),974 (644–1373) μg/L
same,Cmin median (IQR),[1]; patients reporting Fatigue: None (n = 32),777 (561–1087) μg/L
same,Cmin median (IQR),"[1]; patients reporting Fatigue: Severe (n = 25), p any .007, severe .023",1160 (787–1468) μg/L
same,Cmin median (IQR),[1]; patients reporting Headache: Mild (n = 40),905 (625–1254) μg/L
same,Cmin median (IQR),[1]; patients reporting Headache: None (n = 91),970 (618–1288) μg/L
same,Cmin median (IQR),[1]; patients reporting Headache: Severe (n = 1),2413 µg/L
same,Cmin median (IQR),[1]; patients reporting Itching: Mild (n = 61),923 (740–1243) μg/L
same,Cmin median (IQR),[1]; patients reporting Itching: None (n = 61),954 (565–1283) μg/L
same,Cmin median (IQR),"[1]; patients reporting Itching: Severe (n = 11), p severe .012",1260 (1021–1800) μg/L
same,Cmin median (IQR),[1]; patients reporting Myalgia: Mild (n = 62),1031 (765–1380) μg/L
same,Cmin median (IQR),[1]; patients reporting Myalgia: None (n = 56),857 (574–1219) μg/L
same,Cmin median (IQR),[1]; patients reporting Myalgia: Severe (n = 12),840 (658–1553) μg/L
same,Cmin median (IQR),[1]; patients reporting Nausea: Mild (n = 27),1210 (750–1798) μg/L
same,Cmin median (IQR),[1]; patients reporting Nausea: None (n = 104),945 (615–1249) μg/L
same,Cmin median (IQR),[1]; patients reporting Nausea: Severe (n = 1),648 µg/L
same,Cmin median (IQR),[1]; patients reporting Rash: None (n = 75),964 (598–1338) μg/L
same,Cmin median (IQR),[1]; patients reporting Rash: Severe (n = 12),1157 (764–1540) μg/L
same,1-year MMR rate according to nilotinib Cmin,"[2]; All patients, Cmin quartile Q1 (< 635 μg/L)",56% (5/9)
same,1-year MMR rate according to nilotinib Cmin,"[2]; All patients, Cmin quartile Q2 (Q2–Q3 635–< 1346 μg/L)",88% (7/8)
same,1-year MMR rate according to nilotinib Cmin,"[2]; All patients, Cmin quartile Q3 (Q2–Q3 635–< 1346 μg/L)",75% (12/16)
same,1-year MMR rate according to nilotinib Cmin,"[2]; All patients, Cmin quartile Q4 (≥ 1346 μg/L)",30% (3/10)
same,median time to MMR12,"[2]; Cmin quartile Q1, n = 5",6.4 months
same,median time to MMR12,"[2]; Cmin quartile Q2, n = 7",6.7 months
same,median time to MMR12,"[2]; Cmin quartile Q3, n = 12",4.3 months
same,median time to MMR12,"[2]; Cmin quartile Q4, n = 3",2.8 months
same,1-year MMR rate according to nilotinib Cmin,"[2]; Subpopulation 1A/1B (1st line treatment), Q1 (< 635 μg/L)",71% (5/7)
same,1-year MMR rate according to nilotinib Cmin,"[2]; Subpopulation 1A/1B (1st line treatment), Q2",100% (5/5)
same,1-year MMR rate according to nilotinib Cmin,"[2]; Subpopulation 1A/1B (1st line treatment), Q3",73% (8/11)
same,1-year MMR rate according to nilotinib Cmin,"[2]; Subpopulation 1A/1B (1st line treatment), Q4 (≥ 1346 μg/L)",40% (2/5)
same,1-year MMR rate according to nilotinib Cmin,"[2]; Subpopulation 2A/2B (≥ 2nd line treatment), Q1 (< 635 μg/L)",0% (0/2)
same,1-year MMR rate according to nilotinib Cmin,"[2]; Subpopulation 2A/2B (≥ 2nd line treatment), Q3",80% (4/5)
same,1-year MMR rate according to nilotinib Cmin,"[2]; Subpopulation 2A/2B (≥ 2nd line treatment), Q4 (≥ 1346 μg/L)",20% (1/5)
same,mean time to MMR12,[2]; first-line nilotinib treatment,5.9 ± 3.2 months
same,median time to MMR12,[2]; first-line nilotinib treatment,6.1 months
same,"time to MMR12, range",[2]; first-line nilotinib treatment,1.2–12.9 months
same,1-year MMR rate,"[2]; first-line nilotinib treatment (subpopulations 1A/1B), 20/28",71%
same,overall 1-year MMR rate,[2]; range over lines of treatment,47 to 71%
same,mean time to MMR12,[2]; [7],5.8 ± 4.4 months
same,median time to MMR12,[2]; [7],3.7 months
same,"time to MMR12, range",[2]; [7],2.6–12.4 months
same,1-year MMR rate,"[2]; second/third-line nilotinib treatment (subpopulations 2A/2B), 7/15",47%
same,"Fatigue, % of patients experiencing (any severity)",[3],About 75%
same,"Itching, % of patients reporting (any severity)",[3],59%
same,"Myalgia, % of patients reporting (any severity)",[3],54%
same,"Rash, % of patients reporting (any severity)",[3],43%
same,"Fatigue, % mild",[3]; mild = a little bit/rather,54.9%
same,"Headache, % mild",[3]; mild = a little bit/rather,35.8%
same,"Itching, % mild",[3]; mild = a little bit/rather,51.9%
same,"Myalgia, % mild",[3]; mild = a little bit/rather,48.1%
same,"Nausea, % mild",[3]; mild = a little bit/rather,20.4%
same,"Rash, % mild",[3]; mild = a little bit/rather,35.2%
same,"Fatigue, % severe",[3]; severe = a lot/very much,20% and 19.6%
same,"Headache, % severe",[3]; severe = a lot/very much,1.9%
same,"Itching, % severe",[3]; severe = a lot/very much,7.4%
same,"Myalgia, % severe",[3]; severe = a lot/very much,6% and 5.8%
same,"Nausea, % severe",[3]; severe = a lot/very much,1.9%
same,"Rash, % severe",[3]; severe = a lot/very much,7.4%
same,number of patients who discontinued nilotinib treatment due to progression,[4],4
same,number of patients who discontinued nilotinib treatment due to side effects,[4],6
same,1-year MMR rate,[5],55%
